As usually defined, the viability is a read-out of living cells in per cent, often relative to untreated cells.

One compound from paper PMC11241255 (International Journal of Molecular Sciences, 2024) can be followed below.

In assay [1] the test system is H2O2-induced neuroblastoma SH-SY5Y cells. Put plainly: Neuroprotection assay against H2O2-induced oxidative stress (WST-8). Format: cell-based, Human. The conditions noted are these: Homo sapiens, SH-SY5Y; 30 µg/mL; 12 h pre-treatment, 1 h H2O2 100 µM; read-out: % cell viability, H2O2-induced SH-SY5Y. The procedure:
Human neuroblastoma SH-SY5Y cells (ATCC CRL-2266, Manassas, VA, USA) were maintained in Dulbecco’s modified Eagle’s medium (DMEM, Gibco) supplemented with 10% fetal bovine serum (FBS), 1% kanamycin, and 1% penicillin (Thermo Fisher Scientific, Waltham, MA, USA) at 37 °C with 5% CO2, and a 95% humidified atmosphere in the incubator. The experiments were executed at 80–90% cell confluency.
The neuroprotective effect of extracts and phytocompounds on H2O2-induced oxidative stress in SH-SY5Y by a previously described method. The cells (1 × 10^4 cells/well) were seeded in a 96-well sterile plate. After stabilization, the cells were pre-treated with the extracts and phytocompounds for 24 h. The extracts and phytocompounds were removed and treated with H2O2 (100 μM) for 6 h. A solvent control, H2O2 alone, and extract alone treatments were also included. After incubation, the % cell viability was measured using WST-8 reagent in triplicate experiments.
(In general: Tetrazolium dyes change colour on reduction, which living cells bring about.)

A short description of assay [2]: Ferric reducing antioxidant potential (FRAP) assay. The conditions noted are these: 1 mg/mL. The procedure:
FRAP assay was used to assess the […] of the extracts and phytocompounds with slight modification in a previously reported method. For the assay, the extract (1 mg/mL) was incubated with 200 μL of FRAP reagent, and the reduction of ferric tripyridyltriazine was monitored at 593 nm (Multimode reader, Synergy-H1 BioTek, Agilent, USA). Ascorbic acid (2 μg/mL) was used as a positive control. FRAP values of the extracts and phytocompounds were calculated from the standard curve of FeSO4 (15–250 μM) and expressed as μM Fe^2+/g.

Molecules are shown by their SMILES.

Take `C=C(C)[C@H]1CC=C(C)C(=O)C1` [carvone, D-carvone]: the viability at 30 µg/mL in assay [1] came out at 70.5 ± 1.67%. Further, the FRAP value in assay [2] amounted to 43.25 ± 2.50 µM Fe^2+/g.
